From patent publication US20130331353A1, “CELL-PERMEABLE VARIANTS OF TREHALOSE AND METHODS FOR THE PROTECTION OF LIVING CELLS” (UNION COLLEGE, priority 2012, published 2013)

Test system: Jurkat cells
Test: Survival of Jurkat cells after cryopreservation (Trypan blue staining, automated cell counter)
Assay type: cell-based, human
Conditions: Jurkat cells incubated 24 hours (50-200 μM Compound 2, with or without 200 mM Tre), slowly frozen at −80° C., thawed quickly; FIG. 2
Description: Fully acetylated Tre (Compound 2, FIG. 1) has been synthesized, and incubated with Jurkat cells, a human T-cell line.
In accordance with a method of the present invention, mammalian cells are incubated with a solution containing cell-permeable variants of Tre. Preferably, the incubation time is at least 24 hours, more preferably, 24 to 96 hours, and most preferably about 48 hours. The cells are then frozen, preferably to about −80° C. or colder and thawed. Suitable freezing techniques include freezing the cells slowly, using for example a cryo 1° C. freezing container (“Mr. Frosty”), and freezing the cells quickly, for example, by plunging them into liquid nitrogen. Preferably, the frozen cells are thawed quickly, but they may also be thawed slowly. The % cell survival is measured, preferably using Trypan blue staining and an automated cell counter. […]
Jurkat cells were incubated for 24 hours with each of the following solutions: 0 mM Tre, 200 mM Tre, 50 μM Compound 2, 100 μM Compound 2, 200 μM Compound 2, 50 μM Compound 2+200 mM Tre, 100 μM Compound 2+200 mM Tre, and 200 μM Compound 2+200 mM Tre. The cells were then slowly frozen at −80° C. using a cryo 1° C. freezing container (“Mr. Frosty”) and thawed quickly. % cell survival was measured using Trypan blue staining and automated cell counter.

For `CC(=O)OCC1OC(OC2OC(COC(C)=O)C(OC(C)=O)C(OC(C)=O)C2OC(C)=O)C(OC(C)=O)C(OC(C)=O)C1OC(C)=O` (stereo not shown) [Compound 2, fully acetylated trehalose], the “survival after freezing and thawing” value was “improved survival”.
